Data published in patent US12319652B2, “Salts and solid forms of (R)-1-(5-methoxy-1H-indol-1-yl)-N,N-dimethylpropan-2-amine” (priority 2021, dated 2025).
Where two headings read alike, the source gives them in different places.

Experiments:
[1] = Dynamic vapor sorption (DVS); format: physicochemical; conditions: for DVS isotherm type / hygroscopicity: 0 to 90 to 0% RH; for DVS weight gain at 70% RH: 70% RH (printed 70° RH in Example 8); for DVS desorption behaviour (hysteresis): during desorption
How it was run: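 At 25 °C, 20 to 50 mg sample was dried at 0% RH for 60 minutes, then humidity raised 0-30% in 5% steps and 30-90% in 10% steps, with matching desorption back to 0%. Equilibrium set at dm/dt 0.002%/min; amorphous material was run with fixed 1 hour steps.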

[2] = Solubility determinations in SIF buffers (FaSSIF, FeSSIF, FaSSGF); format: physicochemical; conditions: for Solubility in SIF buffers: FaSSIF, FeSSIF and FaSSGF, 37° C., 24 h, concentration tested 30 mg/ml
How it was run: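 Salt forms suspended at 30 mg/ml in FaSSIF, FeSSIF or FaSSGF at 37° C. for 24 h, pH kept in range with 1 M HCl or NaOH. Supernatants sampled at 1, 3, 6 and 24 h, centrifuged and quantified by HPLC as compound 1 free base against amorphous compound 1 calibrants; pellets checked by XRPD for form change.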

[3] = format: physicochemical; conditions: for Change of purity profile / CP: 10-day time point
Method: Equilibrium Humidity Evaluation (40° C./75% RH for 10 Days)
100 mg portions of compound 1 salts (for inputs see table below) were placed in the relevant open vials. The powders were finely divided and distributed evenly over the base of the vial, such that equal material coverage across the panel was observed. These samples were then maintained 40°C. under 75% RH. The samples were sub-sampled at intervals of 5 and 10 days and analysed by ^1H NMR, HPLC, XRPD, DSC, TGA and PLM, for evidence of phase change or chemical degradation (FIG. 269-297).

[4] = Amorphous forms and thermal study (glass temperature Tg by DSC/TGA); format: physicochemical; conditions: for Glass temperatures (Tg): amorphous form
[5] = Amorphisation activity: Antisolvent/N2 flow, 50 mg
[6] = Amorphisation activity: Freeze dry, 50 mg
[7] = Amorphisation activity: HFIPA Evaporation o/n, 50 mg
[8] = Amorphisation activity: HFIPA Evaporation, 50 mg

SMILES: COc1ccc2c(ccn2C[C@@H](C)N(C)C)c1.Cl [Compound 1 HCl]
- DVS isotherm type / hygroscopicity [1]: slightly hygroscopic isotherm
- DVS isotherm type / hygroscopicity ([1]; listed as Compound 1·HCl): slightly hygroscopic isotherm
- DVS isotherm type / hygroscopicity ([1]; listed as compound 1·HCl): slightly hygroscopic
- DVS weight gain at 70% RH [1]: ca. 0.2 % w/w
- DVS mono and multilayer sorption >80% RH ([1]; >80% RH): ca. 0.5 % w.w
- DVS desorption behaviour (hysteresis) [1]: small water affinity hysteresis
- DVS desorption behaviour (hysteresis) ([1]; listed as Compound 1·HCl): small water affinity hysteresis
- Disproportionation in SIF buffers [2]: disproportionation not observed
- Solubility in SIF buffers ([2]; listed as HC): freely soluble
- Solubility in SIF buffers ([2]; listed as compound 1·HCl): Freely soluble
- Change of purity profile / CP ([3]; 40° C./75% RH): no reduction in CP
- Change of purity profile / CP ([3]; 40° C./75% RH, listed as compound 1·HCl): little changed
- CP ([3]; 40° C./75% RH, over 10 days): 99.60 % area
- Stability at 40° C./75% RH ([3]; 10 days, listed as compound 1·HCl): Chemically and physically stable
- Form by XRPD [4, 5]: Form A
- Outcome [4, 5]: Crystalline
- Form by XRPD [4, 6]: Form A
- Outcome [4, 6]: Crystalline
- Form by XRPD [4, 7]: Form A
- Outcome [4, 7]: Crystalline
- Form by XRPD [4, 8]: Form A
- Outcome [4, 8]: Crystalline
- Outcome ([4]; Hot plate heat-up, 20 to 236 ° C.): Form A
- Outcome ([4]; Hot stage plate heat-up, 20 to 260 ° C.): Amorphous
- Outcome ([4]; Hot stage plate heat-up, 20 to 275 ° C.): Amorphous
- Outcome ([4]; Open Pan DSC, 20 to 220 to −20, O/N 20 to 250 ° C.): Amorphous
- Outcome ([4]; Sealed DSC, 20 to 220 to −20 to 250 ° C.): Amorphous
- Outcome ([4]; TGA, 20 to 220 to −20 to 250 ° C.): Amorphous
- Glass temperatures (Tg) [4]: 37 °C

SMILES: COc1ccc2c(ccn2C[C@@H](C)[NH+](C)C)c1.O=C(O)/C=C/C(=O)O [Compound 1 fumarate, (R)-1-(5-methoxy-1H-indol-1-yl)-N,N-dimethylpropan-2-amine fumarate]
- RH above which pronounced mono, multilayer sorption and probable deliquescence occurred [1]: > 80 % RH
- DVS isotherm type / hygroscopicity ([1]; listed as Compound 1·Fumarate, fumarate): deliquescent type isotherm
- DVS isotherm type / hygroscopicity ([1]; listed as compound 1·Fumarate, fumarate): deliquescent
- DVS weight gain at 70% RH [1]: ca. 1 % w/w
- Solubility in SIF buffers [2]: freely soluble
- Change of purity profile / CP ([3]; 40° C./75% RH): reduction in CP
- HPLC peak RRT 0.93 ([3]; salt before storage (t = 0)): 0.36
- HPLC peak RRT 1.00 (reference peak) ([3]; salt before storage (t = 0)): 98.38
- HPLC peak RRT 1.11 ([3]; salt before storage (t = 0)): 0.79
- HPLC peak RRT 1.15 ([3]; salt before storage (t = 0)): 0.27
- HPLC peak RRT 1.17 ([3]; salt before storage (t = 0)): 0.13
- HPLC peak RRT 1.19 ([3]; salt before storage (t = 0)): 0.08
- HPLC peak RRT 0.93 ([3]; t = 5 d at 75% RH at 40° C.): 0.64
- HPLC peak RRT 0.98 ([3]; t = 5 d at 75% RH at 40° C.): 0.05
- HPLC peak RRT 1.00 (reference peak) ([3]; t = 5 d at 75% RH at 40° C.): 96.82
- HPLC peak RRT 1.08 ([3]; t = 5 d at 75% RH at 40° C.): 0.05
- HPLC peak RRT 1.11 ([3]; t = 5 d at 75% RH at 40° C.): 1.06
- HPLC peak RRT 1.15 ([3]; t = 5 d at 75% RH at 40° C.): 0.60
- HPLC peak RRT 1.17 ([3]; t = 5 d at 75% RH at 40° C.): 0.02
- HPLC peak RRT 1.18 ([3]; t = 5 d at 75% RH at 40° C.): 0.27
- HPLC peak RRT 1.20 ([3]; t = 5 d at 75% RH at 40° C.): 0.20
- HPLC peak RRT 1.27 ([3]; t = 5 d at 75% RH at 40° C.): 0.05
- HPLC peak RRT 1.28 ([3]; t = 5 d at 75% RH at 40° C.): 0.03
- HPLC peak RRT 1.39 ([3]; t = 5 d at 75% RH at 40° C.): 0.10
- HPLC peak RRT 1.43 ([3]; t = 5 d at 75% RH at 40° C.): 0.06
- HPLC peak RRT 1.47 ([3]; t = 5 d at 75% RH at 40° C.): 0.06
- HPLC peak RRT 0.93 ([3]; t = 10 d at 75% RH at 40° C.): 0.61
- HPLC peak RRT 0.98 ([3]; t = 10 d at 75% RH at 40° C.): 0.07
- HPLC peak RRT 1.00 (reference peak) ([3]; t = 10 d at 75% RH at 40° C.): 97.08
- HPLC peak RRT 1.08 ([3]; t = 10 d at 75% RH at 40° C.): 0.04
- HPLC peak RRT 1.11 ([3]; t = 10 d at 75% RH at 40° C.): 0.96
- HPLC peak RRT 1.13 ([3]; t = 10 d at 75% RH at 40° C.): 0.05
- HPLC peak RRT 1.15 ([3]; t = 10 d at 75% RH at 40° C.): 0.52
- HPLC peak RRT 1.18 ([3]; t = 10 d at 75% RH at 40° C.): 0.09
- HPLC peak RRT 1.19 ([3]; t = 10 d at 75% RH at 40° C.): 0.12
- HPLC peak RRT 1.20 ([3]; t = 10 d at 75% RH at 40° C.): 0.15
- HPLC peak RRT 1.27 ([3]; t = 10 d at 75% RH at 40° C.): 0.03
- HPLC peak RRT 1.28 ([3]; t = 10 d at 75% RH at 40° C.): 0.05
- HPLC peak RRT 1.34 ([3]; t = 10 d at 75% RH at 40° C.): 0.04
- HPLC peak RRT 1.39 ([3]; t = 10 d at 75% RH at 40° C.): 0.08
- HPLC peak RRT 1.43 ([3]; t = 10 d at 75% RH at 40° C.): 0.04
- HPLC peak RRT 1.45 ([3]; t = 10 d at 75% RH at 40° C.): 0.03
- HPLC peak RRT 1.47 ([3]; t = 10 d at 75% RH at 40° C.): 0.05
- Form by XRPD [4, 5]: Amorphous
- Outcome [4, 5]: Gum
- Form by XRPD [4, 6]: Form A
- Outcome [4, 6]: Crystalline
- Outcome ([4]; Amorphisation activity: Rotary Vac (Methanol), 50 mg): Gum
- Outcome ([4]; Hot plate heat-up, 20 to 165 ° C.): Amorphous
- Outcome ([4]; Hot stage plate heat-up, 20 to 165 ° C.): Amorphous
- Outcome ([4]; Open Pan DSC, 20 to 145 to −20, O/N 20 to 230 ° C.): Amorphous
- Outcome ([4]; Sealed DSC, 20 to 145 to −20 to 230 ° C.): Amorphous
- Outcome ([4]; TGA, 20 to 145 to −20 to 230 ° C.): Amorphous
- Glass temperatures (Tg) [4]: 24 °C
